Measurements published in ChEMBL document CHEMBL1201862, “PubChem BioAssay data set” (2004).
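Method: 48-hour compound exposure of cells in 96-well plates, five concentrations, linear interpolation of endpoints. GI50 is the concentration that inhibits growth by half.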 The source made the active and inactive calls. Rule as the data show it: active = GI50 up to about 1.1 µM and inactive = higher.

Key:
Test in all cases: NCI anticancer screen, dose series, 48 h
[1] = test system: SK-MEL-5
[2] = test system: RPMI-8226
[3] = test system: MDA-MB-231
[4] = test system: DU-145
[5] = test system: Hs-578T
[6] = test system: HOP-92
[7] = test system: TK-10
[8] = test system: SNB-75
[9] = test system: MDA-MB-435
[10] = test system: A498
[11] = test system: A549
[12] = test system: OVCAR-5
[13] = test system: T47D
[14] = test system: OVCAR-4
[15] = test system: HCT-116
[16] = test system: MOLT-4
[17] = test system: SK-MEL-28
[18] = test system: MCF7
[19] = test system: SF-539
[20] = test system: SR

Row | Compound | GI50 [1] | GI50 [2] | GI50 [3] | GI50 [4] | GI50 [5] | GI50 [6] | GI50 [7] | GI50 [8] | GI50 [9] | GI50 [10] | GI50 [11] | GI50 [12] | GI50 [13] | GI50 [14] | GI50 [15] | GI50 [16] | GI50 [17] | GI50 [18] | GI50 [19] | GI50 [20]
1 | COc1cc(OC)cc(-c2nc(O)c3ccccc3n2)c1 | > 100 µM (inactive) | > 100 µM (inactive) | 86.1 µM (inactive) | > 100 µM (inactive) | 38.8 µM (inactive) | > 100 µM (inactive) | 43.5 µM (inactive) | 29.6 µM (inactive) | > 100 µM (inactive) | 31.1 µM (inactive) | > 100 µM (inactive) | > 100 µM (inactive) | > 100 µM (inactive) | > 100 µM (inactive) | 42.5 µM (inactive) | > 100 µM (inactive) | > 100 µM (inactive) |  |  | 
2 | O=C(/C=C(\S/C=C(/c1ccccc1)N1CCn2c(C(=O)c3ccccc3)c(C(=O)c3ccccc3)c(C(=O)c3ccccc3)c21)C(=O)c1ccccc1)c1ccccc1 | > 10 µM (inactive) | > 10 µM (inactive) | > 10 µM (inactive) | > 10 µM (inactive) | > 10 µM (inactive) | > 10 µM (inactive) | > 10 µM (inactive) | > 10 µM (inactive) | > 10 µM (inactive) |  | > 10 µM (inactive) | > 10 µM (inactive) | > 10 µM (inactive) | > 10 µM (inactive) | > 10 µM (inactive) | > 10 µM (inactive) | > 10 µM (inactive) | > 10 µM (inactive) | > 10 µM (inactive) | 
3 | Cc1cccc2c(N)c3cccc(C(=O)NCC[N+](C)(C)[O-])c3nc12 | 22.8 µM (inactive) | 9.44 µM (inactive) | 20.4 µM (inactive) | 3.02 µM (inactive) | 5.37 µM (inactive) | 10.5 µM (inactive) | 21.8 µM (inactive) | 1.32 µM (inactive) | 16.8 µM (inactive) |  | 1.24 µM (inactive) | 5.32 µM (inactive) | 13.8 µM (inactive) | 10.3 µM (inactive) | 13.2 µM (inactive) | 0.542 µM (active) | 17.3 µM (inactive) | 2.1 µM (inactive) | 6.82 µM (inactive) | 
4 | COC(=O)C(=O)C(C(=O)C(=O)Nc1ccccc1C(=O)OC)c1nc2ccc(C(=O)c3ccccc3)cc2nc1O (stereo not given) | 53.7 µM (inactive) | 51.9 µM (inactive) | 76.4 µM (inactive) |  | 33.2 µM (inactive) | > 100 µM (inactive) | > 100 µM (inactive) | 24.2 µM (inactive) | 38.9 µM (inactive) | 81.5 µM (inactive) | > 100 µM (inactive) | > 100 µM (inactive) | 38.3 µM (inactive) | 24.9 µM (inactive) | > 100 µM (inactive) |  | 90.2 µM (inactive) | 66.5 µM (inactive) | > 100 µM (inactive) | 
5 | C[n+]1c2ccc(Cl)cc2nc2cc(-c3ccccc3)ccc21 | 6.68 µM (inactive) | 1.93 µM (inactive) | 8.63 µM (inactive) | 22.5 µM (inactive) | 25.5 µM (inactive) |  | 22.8 µM (inactive) | 24.7 µM (inactive) | 1.77 µM (inactive) |  | 4.81 µM (inactive) | 24.1 µM (inactive) |  | 18.5 µM (inactive) | 16.7 µM (inactive) | 1.61 µM (inactive) | 20.1 µM (inactive) | 1.32 µM (inactive) | 15.8 µM (inactive) | 2.67 µM (inactive)
6 | CC(=O)c1cccc(NC(=O)C(=O)NNc2nnc(S)n2N)c1 | 1.21 µM (inactive) | 13.6 µM (inactive) |  | 6.58 µM (inactive) | 2 µM (inactive) | 13.9 µM (inactive) | 25.9 µM (inactive) | 7.29 µM (inactive) |  | 20.4 µM (inactive) | 3.75 µM (inactive) | 17.3 µM (inactive) | 3.5 µM (inactive) | 10.1 µM (inactive) | 4 µM (inactive) | 3.6 µM (inactive) | 6.89 µM (inactive) | 4.27 µM (inactive) | 6.18 µM (inactive) | 3.61 µM (inactive)
7 | C[C@]12CCC(=O)C=C1CC[C@@H]1C2CC[C@@]2(C)C1CC[C@@H]2OC(=O)C12OC1CCC2=O (stereo not given in full) | 16.2 µM (inactive) | 20.9 µM (inactive) |  |  |  | 19.8 µM (inactive) | 20 µM (inactive) | 16.7 µM (inactive) |  | 18 µM (inactive) | 25 µM (inactive) | 17.9 µM (inactive) |  | 21.6 µM (inactive) | 15.7 µM (inactive) | 10.1 µM (inactive) | 17.4 µM (inactive) |  | 20.3 µM (inactive) | 17.1 µM (inactive)
8 | CC(=O)NC1C(CO)O[C@@H]2OC(C)(C)O[C@H]12 (stereo not given in full) |  | > 100 µM (inactive) | > 100 µM (inactive) |  | > 100 µM (inactive) | > 100 µM (inactive) | > 100 µM (inactive) | > 100 µM (inactive) | > 100 µM (inactive) | > 100 µM (inactive) | > 100 µM (inactive) | > 100 µM (inactive) |  | > 100 µM (inactive) | > 100 µM (inactive) | > 100 µM (inactive) | > 100 µM (inactive) | > 100 µM (inactive) | > 100 µM (inactive) | 
